Read-outs that look alike come from different tables or passages of the source.
Experiments:
[1] = biological target: wild-type (WT) His-tagged SARS-CoV-2 SgP RBD (Severe acute respiratory syndrome coronavirus 2, UniProt P0DTC2); assay type: binding; settings: for Mean fluorescence intensity (MFI): glycans printed at 100 µM, MFI scaled to positive control = 100, WT RBD 20 µg/mL
[2] = biological target: T1, WT RBD of SARS-CoV-2 SgP (Severe acute respiratory syndrome coronavirus 2, UniProt P0DTC2); assay type: binding; settings: read-out: KD (microarray, sigmoidal fit)
[3] = biological target: T1, WT RBD of SARS-CoV-2 SgP; settings: read-out: KD (solution fluorescence titration); pH 7.4
[4] = microarray, WT RBD, library A1-A19

NCCCO[C@@H]1O[C@@H](C(=O)O)[C@@H](O[C@H]2O[C@H](CO)[C@@H](O[C@@H]3O[C@@H](C(=O)O)[C@@H](O[C@H]4O[C@H](CO)[C@@H](O)[C@H](OS(=O)(=O)O)[C@H]4N)[C@H](O)[C@H]3O)[C@H](OS(=O)(=O)O)[C@H]2N)[C@H](O)[C@H]1O [A9]
Recognition by WT RBD better than the next best molecule (A10) [1, 4]: > 250%

NCCCO[C@@H]1O[C@@H](C(=O)O)[C@@H](O[C@H]2O[C@H](CO)[C@@H](O[C@@H]3O[C@@H](C(=O)O)[C@@H](O[C@H]4O[C@H](CO)[C@@H](O)[C@H](OS(=O)(=O)O)[C@H]4N)[C@H](O)[C@H]3OS(=O)(=O)O)[C@H](OS(=O)(=O)O)[C@H]2N)[C@H](O)[C@H]1OS(=O)(=O)O [A13]
Mean fluorescence intensity (MFI) [1]: lower MFI in comparison to A9

NOCCOCCO[C@@H]1O[C@@H](C(=O)O)[C@@H](OS(=O)(=O)O)[C@H](O)[C@H]1OS(=O)(=O)O [A16]
Binding signal relative to closest neighbors [1, 4]: ~3 fold

CC(=O)N[C@H]1[C@@H](O[C@H]2[C@H](F)[C@@H](OS(=O)(=O)O)[C@H](OCCCN)O[C@@H]2C(=O)O)O[C@H](COS(=O)(=O)O)[C@@H](O)[C@@H]1OS(=O)(=O)O [B20]
Mean fluorescence intensity (MFI) [1]: > 30

NCCCO[C@@H]1O[C@H](C(=O)O)[C@@H](O[C@H]2O[C@H](COS(=O)(=O)O)[C@@H](O)[C@H](OS(=O)(=O)O)[C@H]2NS(=O)(=O)O)[C@H](F)[C@H]1O [B22]
Mean fluorescence intensity (MFI) [1]: > 30

NCCCO[C@@H]1O[C@H](C(=O)O)[C@@H](O[C@H]2O[C@H](COS(=O)(=O)O)[C@@H](O)[C@H](OS(=O)(=O)O)[C@H]2NS(=O)(=O)O)[C@H](F)[C@H]1OS(=O)(=O)O [B23]
Mean fluorescence intensity (MFI) [1]: > 30

NOCCOCCO[C@@H]1O[C@@H](COS(=O)(=O)O)[C@@H](OS(=O)(=O)O)[C@H](O)[C@H]1OS(=O)(=O)O [B30]
MFI relative to nonsulfated monosaccharide B24 and 3-O-sulfated B28 ([1]; microarray, WT RBD): 4 fold

NOCCOCCO[C@@H]1O[C@@H](COS(=O)(=O)O)[C@@H](O[C@@H]2O[C@@H](COS(=O)(=O)O)[C@@H](OS(=O)(=O)O)[C@H](O)[C@H]2OS(=O)(=O)O)[C@H](O)[C@H]1OS(=O)(=O)O [B32]
Kd [2]: 243 ± 41 nM

NOCCOCCO[C@@H]1O[C@@H](COS(=O)(=O)O)[C@@H](O[C@@H]2O[C@@H](COS(=O)(=O)O)[C@@H](O[C@@H]3O[C@@H](COS(=O)(=O)O)[C@@H](OS(=O)(=O)O)[C@H](O)[C@H]3OS(=O)(=O)O)[C@H](O)[C@H]2OS(=O)(=O)O)[C@H](O)[C@H]1OS(=O)(=O)O [B33]
Kd [2]: 307 ± 38 nM

NOCCOCCO[C@@H]1O[C@@H](COS(=O)(=O)O)[C@@H](O[C@@H]2O[C@@H](COS(=O)(=O)O)[C@@H](O[C@@H]3O[C@@H](COS(=O)(=O)O)[C@@H](O[C@@H]4O[C@@H](COS(=O)(=O)O)[C@@H](OS(=O)(=O)O)[C@H](O)[C@H]4OS(=O)(=O)O)[C@H](O)[C@H]3OS(=O)(=O)O)[C@H](O)[C@H]2OS(=O)(=O)O)[C@H](O)[C@H]1OS(=O)(=O)O [B34]
Kd [2]: 201 ± 64 nM
Kd [3]: 61 ± 8 nM
